From ChEMBL document CHEMBL4706588, “Rational design and biological evaluation of a new class of thiazolopyridyl tetrahydroacridines as cholinesterase and GSK-3 dual inhibitors for Alzheimer's disease” (Eur J Med Chem, 2020)
Activity calls are given as the source filed them. The calls are words filed in the database; no cut-off is given here.

Assays:
[1] = biological target: Mitogen-activated protein kinase 10 (Homo sapiens) (UniProt P53779); test: Inhibition of JNK3 (unknown origin) at 300 nM relative to control
Mitogen-activated protein kinase 10 (Homo sapiens), sequence (P53779 whole entry): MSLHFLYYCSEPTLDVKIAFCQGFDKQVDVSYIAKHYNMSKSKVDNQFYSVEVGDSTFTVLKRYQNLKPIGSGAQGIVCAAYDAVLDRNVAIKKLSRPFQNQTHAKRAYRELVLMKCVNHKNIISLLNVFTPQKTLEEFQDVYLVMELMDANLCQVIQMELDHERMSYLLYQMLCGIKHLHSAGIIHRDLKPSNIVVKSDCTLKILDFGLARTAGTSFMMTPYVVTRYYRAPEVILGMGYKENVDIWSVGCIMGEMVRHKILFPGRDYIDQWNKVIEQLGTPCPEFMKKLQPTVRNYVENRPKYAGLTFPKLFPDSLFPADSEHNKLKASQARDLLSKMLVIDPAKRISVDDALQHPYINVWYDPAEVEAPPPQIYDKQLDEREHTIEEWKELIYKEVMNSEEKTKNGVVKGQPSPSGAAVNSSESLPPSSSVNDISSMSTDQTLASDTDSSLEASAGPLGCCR

[2] = biological target: Mitogen-activated protein kinase 9 (Homo sapiens) (UniProt P45984); test: Inhibition of JNK2 (unknown origin) at 300 nM relative to control
Mitogen-activated protein kinase 9 (Homo sapiens), sequence (P45984 whole entry, looked up): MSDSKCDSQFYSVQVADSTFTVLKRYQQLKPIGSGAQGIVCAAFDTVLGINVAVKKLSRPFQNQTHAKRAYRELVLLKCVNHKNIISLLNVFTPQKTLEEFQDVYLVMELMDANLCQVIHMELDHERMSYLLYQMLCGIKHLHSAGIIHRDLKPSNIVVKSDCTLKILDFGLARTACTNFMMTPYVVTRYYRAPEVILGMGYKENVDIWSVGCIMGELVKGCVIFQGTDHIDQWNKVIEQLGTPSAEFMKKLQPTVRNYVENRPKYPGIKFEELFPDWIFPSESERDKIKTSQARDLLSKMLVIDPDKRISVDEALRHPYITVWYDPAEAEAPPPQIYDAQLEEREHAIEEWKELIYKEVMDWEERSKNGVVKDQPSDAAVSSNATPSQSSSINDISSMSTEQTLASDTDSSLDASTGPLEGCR

[3] = organism: Homo sapiens; test: Selectivity for GSK3 (unknown origin) over JNK3 (unknown origin)
[4] = organism: Homo sapiens; test: Selectivity for GSK3 (unknown origin) over CDK2 (unknown origin)
[5] = biological target: Mitogen-activated protein kinase 3 (Homo sapiens) (UniProt P27361); test: Inhibition of ERK1 (unknown origin) at 300 nM relative to control
[6] = biological target: Cyclin-dependent kinase 4 (Homo sapiens) (UniProt P11802); test: Inhibition of CDK4 (unknown origin) at 300 nM relative to control
Cyclin-dependent kinase 4 (Homo sapiens), sequence (P11802 whole entry): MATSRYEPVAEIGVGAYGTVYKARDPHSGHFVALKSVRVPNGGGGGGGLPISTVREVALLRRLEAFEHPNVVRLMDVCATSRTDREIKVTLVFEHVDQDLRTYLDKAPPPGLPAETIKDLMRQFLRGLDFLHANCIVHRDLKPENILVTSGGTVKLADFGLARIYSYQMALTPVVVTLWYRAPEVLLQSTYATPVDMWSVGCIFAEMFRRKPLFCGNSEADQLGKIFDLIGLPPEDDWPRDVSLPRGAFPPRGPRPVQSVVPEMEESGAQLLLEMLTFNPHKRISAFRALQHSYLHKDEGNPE

[7] = organism: Homo sapiens; test: Selectivity for GSK3 (unknown origin) over CDK6 (unknown origin)
[8] = biological target: Glycogen synthase kinase-3 beta (Mus musculus) (UniProt Q9WV60); test: Inhibition of GSK3beta in mouse N2a cells overexpressing human tau protein assessed as reduction in tau Ser396 residue phosphorylation at 5 uM incubated for 1 hr followed by okadaid-acid addition and measured after 5 hrs by Western blot analysis relative to control; format: cell-based; conditions: time 6.0 hrs
Glycogen synthase kinase-3 beta (Mus musculus), sequence (Q9WV60 whole entry, looked up): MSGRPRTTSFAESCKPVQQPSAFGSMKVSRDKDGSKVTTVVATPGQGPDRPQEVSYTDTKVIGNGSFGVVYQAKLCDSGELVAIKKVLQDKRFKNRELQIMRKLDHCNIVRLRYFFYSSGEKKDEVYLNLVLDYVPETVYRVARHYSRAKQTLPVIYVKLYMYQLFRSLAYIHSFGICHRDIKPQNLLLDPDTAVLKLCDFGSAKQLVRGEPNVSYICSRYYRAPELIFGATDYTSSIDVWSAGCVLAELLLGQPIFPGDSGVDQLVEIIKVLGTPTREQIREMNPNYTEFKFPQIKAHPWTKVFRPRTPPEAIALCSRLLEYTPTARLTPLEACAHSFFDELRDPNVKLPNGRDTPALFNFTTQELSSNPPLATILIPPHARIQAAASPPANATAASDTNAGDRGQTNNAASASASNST

[9] = biological target: Mitogen-activated protein kinase 1 (Homo sapiens) (UniProt P28482); test: Inhibition of ERK2 (unknown origin) at 300 nM relative to control
[10] = organism: Homo sapiens; test: Selectivity for GSK3 (unknown origin) over CDK1 (unknown origin)
[11] = biological target: Mitogen-activated protein kinase 14 (Homo sapiens) (UniProt Q16539); test: Inhibition of P38alpha (unknown origin) at 300 nM relative to control
[12] = biological target: T1, Dual specificity tyrosine-phosphorylation-regulated kinase 1A (Homo sapiens, UniProt Q13627); test: Inhibition of DYRK1alpha (unknown origin) at 300 nM relative to control
[13] = organism: Homo sapiens; test: Selectivity for GSK3 (unknown origin) over CDK4 (unknown origin)
[14] = biological target: Acetylcholinesterase (Homo sapiens, UniProt P22303); test: Inhibition of human AChE using acetylthiocholine iodide as substrate preincubated with enzyme for 1 min followed by substrate addition and measured after 10 mins by Ellman's method
[15] = in vitro; conditions: PAMPA
Description: Effective permeability of compound at 100 ug/ml incubated for 20 hrs by PAMPA-BBB assay

[16] = biological target: Mitogen-activated protein kinase 12 (Homo sapiens) (UniProt P53778); test: Inhibition of P38gamma (unknown origin) at 300 nM relative to control
Mitogen-activated protein kinase 12 (Homo sapiens), sequence (P53778 whole entry): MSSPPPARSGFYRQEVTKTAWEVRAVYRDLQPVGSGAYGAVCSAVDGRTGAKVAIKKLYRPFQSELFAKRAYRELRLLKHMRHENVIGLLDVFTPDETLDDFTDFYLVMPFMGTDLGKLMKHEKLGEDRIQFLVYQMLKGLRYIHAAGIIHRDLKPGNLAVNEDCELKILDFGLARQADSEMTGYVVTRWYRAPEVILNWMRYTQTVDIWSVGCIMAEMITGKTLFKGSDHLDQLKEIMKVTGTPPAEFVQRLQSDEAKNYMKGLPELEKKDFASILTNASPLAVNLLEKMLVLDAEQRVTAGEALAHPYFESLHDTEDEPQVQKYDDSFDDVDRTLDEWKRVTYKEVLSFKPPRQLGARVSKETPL

[17] = organism: Homo sapiens; test: Selectivity for GSK3 (unknown origin) over ERK1 (unknown origin)
[18] = biological target: Cholinesterase (Homo sapiens, UniProt P06276); test: Inhibition of human BuChE using butyrylthiocholine iodide as substrate preincubated with enzyme for 1 min followed by substrate addition and measured after 10 mins by Ellman's method
Cholinesterase, sequence (P06276 whole entry): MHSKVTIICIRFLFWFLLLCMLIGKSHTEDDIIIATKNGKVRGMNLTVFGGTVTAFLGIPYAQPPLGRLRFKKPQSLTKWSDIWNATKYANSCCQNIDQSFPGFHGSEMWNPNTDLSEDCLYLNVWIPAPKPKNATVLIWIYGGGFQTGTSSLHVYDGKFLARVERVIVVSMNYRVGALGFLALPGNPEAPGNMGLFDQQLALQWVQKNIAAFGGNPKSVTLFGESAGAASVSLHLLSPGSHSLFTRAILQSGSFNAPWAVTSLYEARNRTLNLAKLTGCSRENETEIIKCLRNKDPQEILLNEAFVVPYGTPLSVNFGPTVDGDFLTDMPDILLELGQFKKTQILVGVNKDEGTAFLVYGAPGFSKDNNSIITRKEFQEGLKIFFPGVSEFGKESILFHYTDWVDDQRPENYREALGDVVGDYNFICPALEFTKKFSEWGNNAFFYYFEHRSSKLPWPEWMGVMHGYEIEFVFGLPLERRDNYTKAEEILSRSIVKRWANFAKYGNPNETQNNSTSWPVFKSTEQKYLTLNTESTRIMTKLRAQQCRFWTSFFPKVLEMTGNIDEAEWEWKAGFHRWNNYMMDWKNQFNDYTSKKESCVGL

[19] = organism: Homo sapiens; test: Selectivity for GSK3 (unknown origin) over CDK9 (unknown origin)
[20] = system: N2a; test: Effect on tau protein expression in mouse N2a cells transfected with human tau protein at 5 to 15 uM incubated for 1 hr followed by okadaid-acid addition and measured after 5 hrs by Western blot analysis; format: functional, cell-based; conditions: dose 5-15 µM, time 6.0 hrs
[21] = system: Mus musculus; test: Cognitive enhancing effect in ICR mouse model of scopolamine-induced memory impairment assessed as improvement in trajectories to platform at 15 mg/kg, po administered 30 mins prior to scopolamine injection by Morris water maze test; format: functional, organism-based
[22] = biological target: Cyclin-dependent kinase 2 (Homo sapiens) (UniProt P24941); test: Inhibition of CDK2 (unknown origin) at 300 nM relative to control
[23] = organism: Homo sapiens; test: Selectivity for GSK3 (unknown origin) over CDK7 (unknown origin)
[24] = biological target: T2, Glycogen synthase kinase-3 beta (Homo sapiens, UniProt P49841); test: biochemical
Target sequence in this assay (P49841 whole entry): as the sequence (Q9WV60 whole entry, looked up) above, with P390T, A392T, T400A, A402T counted along it
Description: Inhibition of recombinant human N-terminal His6-tagged GSK-3beta H350L mutant expressed in baculovirus infected Sf21 cells using GSM as substrate incubated for 30 mins in presence of ATP by kinase-glo luminescence assay

[25] = biological target: T3, Dual specificity tyrosine-phosphorylation-regulated kinase 1B (Homo sapiens, UniProt Q9Y463); test: Inhibition of DYRK1beta (unknown origin) at 300 nM relative to control
Target sequence in this assay (Q9Y463 whole entry, looked up): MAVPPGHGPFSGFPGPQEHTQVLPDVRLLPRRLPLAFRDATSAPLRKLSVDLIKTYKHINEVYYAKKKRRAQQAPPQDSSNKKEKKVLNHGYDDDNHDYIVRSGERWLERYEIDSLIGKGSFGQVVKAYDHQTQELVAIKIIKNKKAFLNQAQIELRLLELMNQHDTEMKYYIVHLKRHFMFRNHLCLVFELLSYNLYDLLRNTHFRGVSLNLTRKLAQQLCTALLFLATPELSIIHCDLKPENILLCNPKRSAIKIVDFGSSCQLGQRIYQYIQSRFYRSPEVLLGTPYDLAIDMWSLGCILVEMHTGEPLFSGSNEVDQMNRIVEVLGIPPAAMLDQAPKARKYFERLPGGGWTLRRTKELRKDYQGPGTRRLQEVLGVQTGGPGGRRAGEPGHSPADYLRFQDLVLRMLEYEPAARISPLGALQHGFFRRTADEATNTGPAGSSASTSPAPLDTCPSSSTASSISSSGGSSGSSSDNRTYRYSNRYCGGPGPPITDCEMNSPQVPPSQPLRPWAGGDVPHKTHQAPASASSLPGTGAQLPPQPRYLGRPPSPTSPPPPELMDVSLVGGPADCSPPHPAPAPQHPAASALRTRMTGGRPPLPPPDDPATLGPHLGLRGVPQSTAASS

[26] = organism: Homo sapiens; test: Selectivity for GSK3 (unknown origin) over ERK2 (unknown origin)
[27] = biological target: Glycogen synthase kinase-3 beta (Mus musculus) (UniProt Q9WV60); test: Inhibition of GSK3beta in mouse N2a cells overexpressing human tau protein assessed as phosphorylated tau Ser396 residue level at 10 uM incubated for 1 hr followed by okadaid-acid addition and measured after 5 hrs by Western blot analysis relative to control; format: cell-based; set-up: scale not given: the % may be the effect or the level left; conditions: time 6.0 hrs
[28] = organism: Homo sapiens; test: Selectivity for GSK3 (unknown origin) over JNK2 (unknown origin)
[29] = biological target: Mitogen-activated protein kinase 13 (Homo sapiens) (UniProt O15264); test: Inhibition of P38delta (unknown origin) at 300 nM relative to control
Mitogen-activated protein kinase 13 (Homo sapiens), sequence (O15264 whole entry): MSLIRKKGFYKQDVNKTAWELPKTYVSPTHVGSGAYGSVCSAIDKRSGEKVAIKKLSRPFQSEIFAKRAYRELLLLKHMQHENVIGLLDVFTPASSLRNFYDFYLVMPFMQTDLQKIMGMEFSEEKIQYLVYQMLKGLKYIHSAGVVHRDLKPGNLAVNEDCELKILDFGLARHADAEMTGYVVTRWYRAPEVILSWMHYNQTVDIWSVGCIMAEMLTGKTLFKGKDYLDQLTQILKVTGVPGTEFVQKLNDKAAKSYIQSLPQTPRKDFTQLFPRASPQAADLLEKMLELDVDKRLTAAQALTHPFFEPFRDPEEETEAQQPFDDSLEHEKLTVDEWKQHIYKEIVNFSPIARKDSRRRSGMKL

[30] = organism: Homo sapiens; test: Selectivity for GSK3 (unknown origin) over MAPK p38 alpha (unknown origin)
[31] = biological target: T2, Glycogen synthase kinase-3 beta; test: Inhibition of GSK-3beta (unknown origin) at 300 nM relative to control
Target sequence in this assay (P49841 whole entry, looked up): as the sequence (Q9WV60 whole entry, looked up) above, with P390T, A392T, T400A, A402T counted along it

[32] = biological target: T1, Dual specificity tyrosine-phosphorylation-regulated kinase 1A; test: Inhibition of DYRK1alpha (unknown origin)
[33] = biological target: Glycogen synthase kinase-3 beta (Mus musculus) (UniProt Q9WV60); test: Inhibition of GSK3beta in mouse N2a cells overexpressing human tau protein assessed as phosphorylated tau Ser396 residue level at 15 uM incubated for 1 hr followed by okadaid-acid addition and measured after 5 hrs by Western blot analysis relative to control; format: cell-based; set-up: scale not given: the % may be the effect or the level left; conditions: time 6.0 hrs
[34] = Effect on swimming speed in ICR mouse model of scopolamine-induced memory impairment at 15 mg/kg, po administered 30 mins prior to scopolamine injection by Morris water maze test; format: ADME, organism-based; conditions: in vivo, 0.5 h
[35] = organism: Homo sapiens; test: Selectivity for GSK3 (unknown origin) over MAPK p38 beta (unknown origin)
[36] = biological target: Glycogen synthase kinase-3 alpha (Homo sapiens) (UniProt P49840); test: Inhibition of GSK-3alpha (unknown origin) at 300 nM relative to control
Glycogen synthase kinase-3 alpha (Homo sapiens), sequence (P49840 2-483 limits assumed): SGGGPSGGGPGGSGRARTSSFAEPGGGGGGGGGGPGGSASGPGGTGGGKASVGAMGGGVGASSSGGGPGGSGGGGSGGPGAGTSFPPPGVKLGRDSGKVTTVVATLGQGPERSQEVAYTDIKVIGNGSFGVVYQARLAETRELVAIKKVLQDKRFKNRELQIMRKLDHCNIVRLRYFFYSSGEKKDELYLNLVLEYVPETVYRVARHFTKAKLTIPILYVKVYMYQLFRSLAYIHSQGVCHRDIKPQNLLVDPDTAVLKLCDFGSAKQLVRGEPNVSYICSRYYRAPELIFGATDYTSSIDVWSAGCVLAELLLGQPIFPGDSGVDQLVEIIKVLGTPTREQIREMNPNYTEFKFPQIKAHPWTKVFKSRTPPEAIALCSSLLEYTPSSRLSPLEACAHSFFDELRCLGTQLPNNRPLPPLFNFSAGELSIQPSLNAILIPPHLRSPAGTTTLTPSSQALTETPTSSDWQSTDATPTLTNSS

[37] = Effect on cell morphology in LPS-treated mouse BV-2 cells at 5 uM pretreated for 1 hr followed by incubation with LPS for 24 hrs by fluorescence microscopic analysis; format: ADME; conditions: bv-2, 25 h
[38] = organism: Homo sapiens; test: Selectivity for GSK3 (unknown origin) over MAPK p38 gamma (unknown origin)
[39] = biological target: T3, Dual specificity tyrosine-phosphorylation-regulated kinase 1B; test: Inhibition of DYRK1beta (unknown origin)
Target sequence in this assay (Q9Y463 whole entry): as the sequence (Q9Y463 whole entry, looked up) above

[40] = system: BV-2; test: Inhibition of LPS-induced ROS production in mouse BV-2 cells at 5 uM incubated for 1 hr followed by LPS stimulation and measured after 24 hrs by DCFH-DA staining based inverted fluorescence microscopic analysis; format: functional, cell-based; conditions: time 25.0 hrs
[41] = organism: Homo sapiens; test: Selectivity for GSK3 (unknown origin) over MAPK p38 delta (unknown origin)

Structure (SMILES): CNC(=O)c1sc(-c2ccnc(NC(=O)CNCCNc3c4c(nc5ccccc35)CCCC4)c2)nc1OCC1CC1
- inhibition [1]: 16.7%
- inhibition [2]: 29.8%
- Selectivity ratio [3]: 100
- Selectivity ratio [4]: 100
- inhibition [5]: 13.1%
- inhibition [6]: 3.07%
- Selectivity ratio [7]: 100
- inhibition [8]: 49%
- inhibition [9]: 9.78%
- Selectivity ratio [10]: 100
- inhibition [11]: 5.21%
- inhibition [12]: 83.7%
- Selectivity ratio [13]: 100
- IC50 [14]: 1.2 nM
- Papp at 20 h, 100 ug/ml [15]: 6.9 ×10⁻⁶ cm/s
- inhibition [16]: 7.64%
- Selectivity ratio [17]: 100
- IC50 [18]: 150 nM
- Selectivity ratio [19]: 100
- Activity [20]: inactive
- Activity [21]: Active
- inhibition [22]: 3.8%
- Selectivity ratio [23]: 100
- IC50 [24]: 22 nM
- inhibition [25]: 67.9%
- Selectivity ratio [26]: 100
- Activity [27]: 25.8%
- Selectivity ratio [28]: 100
- inhibition [29]: 20.6%
- Selectivity ratio [30]: 100
- inhibition [31]: 86.3%
- IC50 [32]: 28.3 nM
- Activity [33]: 17%
- Activity [34]: Non-Toxic
- Selectivity ratio [35]: 100
- inhibition [36]: 91.1%
- Activity [37]: Non-Toxic
- Selectivity ratio [38]: 100
- IC50 [39]: 120 nM
- inhibition [40]: Active
- Selectivity ratio [41]: 100
